Laboratory results taken from US11998516B2, “Methods and compositions for treating depression using cyclobenzaprine” (TONIX PHARMA HOLDINGS LIMITED, priority 2011, dated 2024).

Tests used:
[1] = test system: patients with fibromyalgia
Procedure: Hospital Anxiety and Depression Scale (HAD). The Hospital Anxiety and Depression Scale (HAD) is a widely used patient self-rated scale with 14 questions (7 “anxiety” and 7 “depression” questions) that ranges from 0-42.
The HAD Depression Subscale score was also analyzed.

[2] = test system: fibromyalgia patients; details: 10 to 40 mg over a 12-week period; cited from earlier work
[3] = 1-4 mg at bedtime, week 8, p=0.012
[4] = 1-4 mg at bedtime, week 8, p=0.017

CN(C)CCC=C1c2ccccc2C=Cc2ccccc21 [cyclobenzaprine, 3-(5H-dibenzo[a,d]cyclohepten-5-ylidene)-N,N-dimethyl-1-propanamine]
HAD depression subscale at week 8 ([1]; 1-4 mg at bedtime, week 8): 4.9
decrease (improvement) of HAD score, baseline to week 8 [1, 3]: 3.3
percent decrease of HAD score, baseline to week 8 [1, 3]: 24.1%
decrease (improvement) of HAD depression subscale, baseline to week 8 [1, 4]: 1.4
percent decrease of HAD depression subscale, baseline to week 8 [1, 4]: 22.2%
HAD score at week 8 ([1]; 1-4 mg at bedtime, week 8, scale range 0-42): 10.4
HAD depression subscale at baseline ([1]; fibromyalgia patients, before treatment): 6.3
HAD score at baseline ([1]; fibromyalgia patients, before treatment, scale range 0-42): 13.7
comparison of change from baseline in HAD scale versus placebo ([1]; week 8, VLD CBP vs placebo groups): did not reveal a significant effect
comparison of change from baseline in HAD Depression subscore versus placebo ([1]; week 8, VLD CBP vs placebo groups, p=0.023): significant improvement
muscle tightness [2]: reduction
pain score [2]: significantly improved
quality of sleep [2]: significantly improved
total number of tender points [2]: reduction
